Several values for one entry are separate records, joined by “and”; a condition that tells them apart may be missing. Identical values can stand only once. Numbers after ± are expanded uncertainties.
Tests used:
[1] = 293.15 K; 101.33 kPa; Liquid; Pycnometric method
[2] = activity coefficient (dimensionless); of the first substance listed, at infinite dilution; xn = mol fraction of the nth substance listed; details: Liquid, Chromatography, x1 = 0

CCCCn1cc[n+](C)c1.[F][Sb-]([F])([F])([F])([F])[F] [1-butyl-3-methylimidazolium hexafluoroantimonate] gave a mass density [1] of 1694.3 ± 3.8 kg/m3.

For C=CCCCCC [1-heptene] + CCCCn1cc[n+](C)c1.[F][Sb-]([F])([F])([F])([F])[F], the activity coefficient ([2]; 313.15 K) was 19.3 and 21.1, the activity coefficient ([2]; 323.15 K) was 17.8 and 19.7 and the activity coefficient ([2]; 333.15 K) was 15.9 and 16.6.

In the case of C#CCCCCC [1-heptyne] + CCCCn1cc[n+](C)c1.[F][Sb-]([F])([F])([F])([F])[F], the activity coefficient ([2]; 313.15 K) is reported as 5.74 and 6.11, the activity coefficient ([2]; 323.15 K) is reported as 5.82 and 6.08 and the activity coefficient ([2]; 333.15 K) is reported as 5.74 and 6.23.

In the case of C#CCCCC [1-hexyne] + CCCCn1cc[n+](C)c1.[F][Sb-]([F])([F])([F])([F])[F], the activity coefficient ([2]; 313.15 K) is reported as 4.26 and 4.05, the activity coefficient ([2]; 323.15 K) is reported as 4.11 and 4.23 and the activity coefficient ([2]; 333.15 K) is reported as 4.1 and 4.32.

With C=CCCCCCCC [1-nonene] + CCCCn1cc[n+](C)c1.[F][Sb-]([F])([F])([F])([F])[F] the activity coefficient ([2]; 313.15 K) was 32.4 and 32.6, the activity coefficient ([2]; 323.15 K) was 30.8 and 33.4 and the activity coefficient ([2]; 333.15 K) was 30.8 and 32.6.

For C#CCCCCCCC [1-nonyne] + CCCCn1cc[n+](C)c1.[F][Sb-]([F])([F])([F])([F])[F], the activity coefficient ([2]; 313.15 K) was 11.4 and 11.6, the activity coefficient ([2]; 323.15 K) was 10.9 and 11.8 and the activity coefficient ([2]; 333.15 K) was 10.9 and 11.6.

For C#CCCCCCC [1-octyne] + CCCCn1cc[n+](C)c1.[F][Sb-]([F])([F])([F])([F])[F], the activity coefficient ([2]; 313.15 K) was 8.68 and 9.4, the activity coefficient ([2]; 323.15 K) was 8.82 and 9.08 and the activity coefficient ([2]; 333.15 K) was 8.56 and 8.99.

With C=CCCC [1-pentene] + CCCCn1cc[n+](C)c1.[F][Sb-]([F])([F])([F])([F])[F] the activity coefficient ([2]; 313.15 K) was 10.1 and 10.5, the activity coefficient ([2]; 323.15 K) was 10.2 ± 0.9 and the activity coefficient ([2]; 333.15 K) was 9.94 and 10.4.

In the case of C#CCCC [1-pentyne] + CCCCn1cc[n+](C)c1.[F][Sb-]([F])([F])([F])([F])[F], the activity coefficient ([2]; 313.15 K) is reported as 2.8 and 2.88, the activity coefficient ([2]; 323.15 K) is reported as 2.89 and 2.9 and the activity coefficient ([2]; 333.15 K) is reported as 2.93 and 3.03.

In the case of CC(C)=O [acetone] + CCCCn1cc[n+](C)c1.[F][Sb-]([F])([F])([F])([F])[F], the activity coefficient ([2]; 313.15 K) is reported as 0.403 and 0.437, the activity coefficient ([2]; 323.15 K) is reported as 0.445 and 0.466 and the activity coefficient ([2]; 333.15 K) is reported as 0.463 and 0.487.

In the case of c1ccccc1 [benzene] + CCCCn1cc[n+](C)c1.[F][Sb-]([F])([F])([F])([F])[F], the activity coefficient ([2]; 313.15 K) is reported as 1.23 and 1.31, the activity coefficient ([2]; 323.15 K) is reported as 1.28 and 1.37 and the activity coefficient ([2]; 333.15 K) is reported as 1.31 and 1.37.

With CCC(C)=O [butanone] + CCCCn1cc[n+](C)c1.[F][Sb-]([F])([F])([F])([F])[F] the activity coefficient ([2]; 313.15 K) was 0.648 and 0.632, the activity coefficient ([2]; 323.15 K) was 0.681 ± 0.058 and the activity coefficient ([2]; 333.15 K) was 0.702 and 0.718.

In the case of C1CCCCCC1 [cycloheptane] + CCCCn1cc[n+](C)c1.[F][Sb-]([F])([F])([F])([F])[F], the activity coefficient ([2]; 313.15 K) is reported as 20 and 18.7, the activity coefficient ([2]; 323.15 K) is reported as 15.7 and 21.1 and the activity coefficient ([2]; 333.15 K) is reported as 17.3 and 18.2.

With C1CCCCC1 [cyclohexane] + CCCCn1cc[n+](C)c1.[F][Sb-]([F])([F])([F])([F])[F] the activity coefficient ([2]; 313.15 K) was 16.4 and 15.4, the activity coefficient ([2]; 323.15 K) was 11 and 18.6 and the activity coefficient ([2]; 333.15 K) was 14.1 and 14.6.

For C1CCCCCCC1 [cyclooctane] + CCCCn1cc[n+](C)c1.[F][Sb-]([F])([F])([F])([F])[F], the activity coefficient ([2]; 313.15 K) was 22.9 and 23.4, the activity coefficient ([2]; 323.15 K) was 17.2 and 27.1 and the activity coefficient ([2]; 333.15 K) was 20.4 and 21.5.

For C1CCCC1 [cyclopentane] + CCCCn1cc[n+](C)c1.[F][Sb-]([F])([F])([F])([F])[F], the activity coefficient ([2]; 313.15 K) was 11.4 and 11.9, the activity coefficient ([2]; 323.15 K) was 10.6 and 10.9 and the activity coefficient ([2]; 333.15 K) was 10.2 and 10.7.

For CCO [ethanol] + CCCCn1cc[n+](C)c1.[F][Sb-]([F])([F])([F])([F])[F], the activity coefficient ([2]; 313.15 K) was 2.33 and 2.46, the activity coefficient ([2]; 323.15 K) was 2.14 and 2.3 and the activity coefficient ([2]; 333.15 K) was 2.01 and 2.07.

In the case of CCc1ccccc1 [ethylbenzene] + CCCCn1cc[n+](C)c1.[F][Sb-]([F])([F])([F])([F])[F], the activity coefficient ([2]; 313.15 K) is reported as 3.11 and 2.92, the activity coefficient ([2]; 323.15 K) is reported as 3.09 and 3.23 and the activity coefficient ([2]; 333.15 K) is reported as 3.18 and 3.45.

In the case of CCCCCCC [heptane] + CCCCn1cc[n+](C)c1.[F][Sb-]([F])([F])([F])([F])[F], the activity coefficient ([2]; 313.15 K) is reported as 37.1 and 38.7, the activity coefficient ([2]; 323.15 K) is reported as 34.2 and 35.8 and the activity coefficient ([2]; 333.15 K) is reported as 31.4 and 34.4.

In the case of C=CCCCC [hex-1-ene] + CCCCn1cc[n+](C)c1.[F][Sb-]([F])([F])([F])([F])[F], the activity coefficient ([2]; 313.15 K) is reported as 14 and 13.1, the activity coefficient ([2]; 323.15 K) is reported as 13 and 14.1 and the activity coefficient ([2]; 333.15 K) is reported as 13.4 and 13.8.

With CCCCCC [hexane] + CCCCn1cc[n+](C)c1.[F][Sb-]([F])([F])([F])([F])[F] the activity coefficient ([2]; 313.15 K) was 28.6 and 27.9, the activity coefficient ([2]; 323.15 K) was 26.4 and 28.2 and the activity coefficient ([2]; 333.15 K) was 26 and 26.6.

For CO [methanol] + CCCCn1cc[n+](C)c1.[F][Sb-]([F])([F])([F])([F])[F], the activity coefficient ([2]; 313.15 K) was 1.7 and 1.88, the activity coefficient ([2]; 323.15 K) was 1.64 and 1.71 and the activity coefficient ([2]; 333.15 K) was 1.57 ± 0.13.

For CCCCCCCCC [nonane] + CCCCn1cc[n+](C)c1.[F][Sb-]([F])([F])([F])([F])[F], the activity coefficient ([2]; 313.15 K) was 47.7 and 48.8, the activity coefficient ([2]; 323.15 K) was 44.9 and 49.1 and the activity coefficient ([2]; 333.15 K) was 44.1 and 47.3.

In the case of C=CCCCCCC [oct-1-ene] + CCCCn1cc[n+](C)c1.[F][Sb-]([F])([F])([F])([F])[F], the activity coefficient ([2]; 313.15 K) is reported as 25.7 ± 2.2, the activity coefficient ([2]; 323.15 K) is reported as 24.6 and 25.7 and the activity coefficient ([2]; 333.15 K) is reported as 24.2 and 24.9.

With CCCCCCCC [octane] + CCCCn1cc[n+](C)c1.[F][Sb-]([F])([F])([F])([F])[F] the activity coefficient ([2]; 313.15 K) was 40.4 and 44.6, the activity coefficient ([2]; 323.15 K) was 39.5 and 42.7 and the activity coefficient ([2]; 333.15 K) was 39.2 and 42.7.

In the case of CCCCC [pentane] + CCCCn1cc[n+](C)c1.[F][Sb-]([F])([F])([F])([F])[F], the activity coefficient ([2]; 313.15 K) is reported as 19.6 and 21.5, the activity coefficient ([2]; 323.15 K) is reported as 17.6 and 18.3 and the activity coefficient ([2]; 333.15 K) is reported as 17 and 18.1.

In the case of CCCO [propan-1-ol] + CCCCn1cc[n+](C)c1.[F][Sb-]([F])([F])([F])([F])[F], the activity coefficient ([2]; 313.15 K) is reported as 3.13 and 3.22, the activity coefficient ([2]; 323.15 K) is reported as 2.82 and 2.96 and the activity coefficient ([2]; 333.15 K) is reported as 2.51 and 2.75.

For Cc1ccccc1 [toluene] + CCCCn1cc[n+](C)c1.[F][Sb-]([F])([F])([F])([F])[F], the activity coefficient ([2]; 313.15 K) was 1.87 and 1.78, the activity coefficient ([2]; 323.15 K) was 1.88 and 1.94 and the activity coefficient ([2]; 333.15 K) was 1.92 and 1.97.

— the NIST ThermoML archive (doi:10.1016/j.jct.2010.12.019)
